Experimental data taken from ChEMBL document CHEMBL1143946, “Docking analyses on human muscarinic receptors: unveiling the subtypes peculiarities in agonists binding” (Bioorg Med Chem, 2008).

Legend:
Experiment in all cases: biochemical
[1] = biological target: T1, Muscarinic acetylcholine receptor M1 (Homo sapiens, UniProt P11229)
T1 sequence (P11229 whole entry): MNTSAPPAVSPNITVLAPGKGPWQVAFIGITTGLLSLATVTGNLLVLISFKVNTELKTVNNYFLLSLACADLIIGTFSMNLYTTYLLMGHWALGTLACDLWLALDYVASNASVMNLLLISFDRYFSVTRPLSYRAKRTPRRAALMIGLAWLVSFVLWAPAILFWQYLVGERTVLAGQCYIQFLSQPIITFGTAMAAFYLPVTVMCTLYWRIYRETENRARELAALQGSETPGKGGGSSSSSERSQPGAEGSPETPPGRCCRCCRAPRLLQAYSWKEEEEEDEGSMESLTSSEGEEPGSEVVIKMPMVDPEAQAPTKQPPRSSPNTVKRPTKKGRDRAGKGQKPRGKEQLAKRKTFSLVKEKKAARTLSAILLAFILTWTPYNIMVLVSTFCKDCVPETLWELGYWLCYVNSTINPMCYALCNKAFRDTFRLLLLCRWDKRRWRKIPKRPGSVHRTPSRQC

[2] = biological target: T2, Muscarinic acetylcholine receptor M5 (Homo sapiens, UniProt P08912)
T2 sequence (P08912 whole entry): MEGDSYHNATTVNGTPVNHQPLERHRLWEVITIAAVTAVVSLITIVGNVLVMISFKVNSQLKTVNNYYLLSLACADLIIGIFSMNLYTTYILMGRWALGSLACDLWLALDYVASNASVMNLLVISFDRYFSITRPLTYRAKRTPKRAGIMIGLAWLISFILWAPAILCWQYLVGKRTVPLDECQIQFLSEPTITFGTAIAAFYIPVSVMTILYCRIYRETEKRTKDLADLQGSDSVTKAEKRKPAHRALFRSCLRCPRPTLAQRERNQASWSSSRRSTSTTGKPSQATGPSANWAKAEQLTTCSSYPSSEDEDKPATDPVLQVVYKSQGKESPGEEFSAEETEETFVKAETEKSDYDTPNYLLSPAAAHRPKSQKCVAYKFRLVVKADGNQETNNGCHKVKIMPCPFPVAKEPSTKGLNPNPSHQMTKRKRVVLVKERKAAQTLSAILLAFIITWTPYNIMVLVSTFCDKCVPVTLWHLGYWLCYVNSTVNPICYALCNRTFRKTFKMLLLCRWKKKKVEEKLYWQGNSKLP
Description: Binding affinity to human cloned muscarinic M5 receptor expressed in CHO cells

[3] = biological target: T3, Muscarinic acetylcholine receptor M2 (Homo sapiens, UniProt P08172)
T3 sequence (P08172 whole entry): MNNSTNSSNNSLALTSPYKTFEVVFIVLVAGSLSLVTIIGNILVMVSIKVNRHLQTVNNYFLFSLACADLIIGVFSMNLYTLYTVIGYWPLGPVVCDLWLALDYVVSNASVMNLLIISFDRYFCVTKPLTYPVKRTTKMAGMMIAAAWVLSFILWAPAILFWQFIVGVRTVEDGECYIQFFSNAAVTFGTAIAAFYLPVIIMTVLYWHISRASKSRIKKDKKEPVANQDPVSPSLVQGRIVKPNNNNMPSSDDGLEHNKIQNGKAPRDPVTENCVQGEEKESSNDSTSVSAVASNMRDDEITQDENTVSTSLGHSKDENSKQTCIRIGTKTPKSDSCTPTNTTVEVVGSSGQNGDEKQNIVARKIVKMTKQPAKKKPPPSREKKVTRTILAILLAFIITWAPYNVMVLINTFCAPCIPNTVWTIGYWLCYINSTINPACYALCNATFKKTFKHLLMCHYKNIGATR

SMILES	Ki [1]	Ki [2]	Ki [3]
C[C@@H]1O[C@H]([C@@H]2CCC[N+]2(C)C)C[S+]1[O-] (stereo in doubt; 11)	93.3 µM	33.9 µM	15.5 µM
C[C@H]1OC[C@@H]([C@H]2CCC[N+]2(C)C)O1	52.5 µM	52.5 µM	5.01 µM
Cc1nccn1CC#CCN1CCCC1=O	0.12 µM	0.0513 µM	0.102 µM
C[C@@H]1O[C@H]([C@@H]2CCC[N+]2(C)C)C[S+]1[O-] (stereo in doubt; 9)			9.33 µM
CC(=O)OC1CC2CCCC1N2C (configuration not stated)	282 µM		2.75 µM
C[N+](C)(C)CC#CCN1CCCC1=O [OXOTREMORINE METHIODIDE]	20.4 µM		0.107 µM
CC(=O)OC1CC2CCCC1N2 (configuration not stated)	21.4 µM		0.00263 µM
CO/N=C(\C#N)[C@H]1CN2CCC1CC2 [SABCOMELINE]	0.229 µM		0.204 µM
C[C@@H]1O[C@H]([C@H]2CCC[N+]2(C)C)CS1	19.1 µM	24.5 µM	5.25 µM
C[C@H]1COC[C@@H](C[N+](C)(C)C)O1		3.72 µM	37.2 µM
C[C@H]1O[C@@H]([C@@H]2CCC[N+]2(C)C)CS1	8.32 µM	10.2 µM	0.676 µM
Cc1nccn1CC#CCOc1ccon1	0.0912 µM	0.00617 µM	0.00363 µM
C[C@H]1O[C@@H]([C@@H]2CCC[N+]2(C)C)C[S+]1[O-] (some centres not stated)			77.6 µM
CO/N=C/C1=CCCN(C)C1 [MILAMELINE]	5.62 µM	3.16 µM	1 µM
C[C@H]1OC[C@@H]([C@@H]2CCC[N+]2(C)C)O1	21.4 µM	22.9 µM	1.7 µM
C[C@H]1O[C@@H]([C@H]2CCC[N+]2(C)C)CS1	5.89 µM	10.7 µM	1.41 µM
C[C@@H]1O[C@H](C[N+](C)(C)C)CS1	11 µM	13.2 µM	2.09 µM
C[C@@H]1O[C@H]([C@@H]2CCC[N+]2(C)C)CS1	14.1 µM	23.4 µM	3.55 µM
O=C1CCCN1CC#CCN1CCCC1 [OXOTREMORINE]	0.00112 µM		0.324 µM
C[C@H]1OC[C@@H](C[N+](C)(C)C)O1	11 µM	21.9 µM	1.2 µM
C[C@@H]1O[C@H]([C@@H]2CCC[N+]2(C)C)C[S+]1[O-] (stereo in doubt; 12)		57.5 µM	81.3 µM
